{"source": "patent US6281352", "note": "Like-named read-outs stand apart in the source and are kept apart here.", "data": [{"molecule": "CNC(=O)[C@@H]1CCC(=O)OCCC[C@H](C(=O)OC(C)(C)C)[C@@H](CC(C)C)C(=O)N1", "values": [{"measurement": "ring closure, yield of all isomers", "setting": "from CNC(=O)[C@H](CCC(=O)O)NC(=O)[C@H](CC(C)C)[C@H](CCCO)C(=O)OC(C)(C)C, ester bond, PPh3/DIAD, THF, 9.4 mM, 16.0 h, 2 steps", "result": 24, "unit": "%"}]}, {"molecule": "COC(=O)[C@@H]1Cc2ccc(cc2)OCCC[C@H](C(=O)OC(C)(C)C)[C@@H](CC(C)C)C(=O)N1", "values": [{"measurement": "ring closure, yield of all isomers", "setting": "from COC(=O)[C@H](Cc1ccc(O)cc1)NC(=O)[C@H](CC(C)C)[C@H](CCCBr)C(=O)OC(C)(C)C, ether bond, Cs2CO3, DMF, 32.8 mM, 80.0 °C, 0.75 h", "result": 74, "unit": "%"}]}, {"molecule": "CNC(=O)[C@@H]1CCCCNC(=O)CC[C@H](C(=O)OC(C)(C)C)N[C@@H](CCc2ccccc2)C(=O)N1", "values": [{"measurement": "ring closure, yield of all isomers", "setting": "from CNC(=O)[C@@H](N)CCCCNC(=O)CC[C@@H](N[C@@H](CCc1ccccc1)C(=O)O)C(=O)OC(C)(C)C, amide bond, BOP, DMF, 24.0 h", "result": 16, "unit": "%"}]}, {"molecule": "CNC(=O)[C@@H]1CCCCNC(=O)C[C@H](C(=O)OC(C)(C)C)N[C@@H](CCc2ccccc2)C(=O)N1", "values": [{"measurement": "ring closure, yield of all isomers", "setting": "from CNC(=O)[C@@H](N)CCCCNC(=O)C[C@@H](N[C@@H](CCc1ccccc1)C(=O)O)C(=O)OC(C)(C)C, amide bond, BOP, DMF, 24.0 h, 2 steps", "result": 30, "unit": "%"}]}, {"molecule": "C=C1CO[C@H](COCc2ccccc2)[C@@H](C/C=C/c2ccccc2)C(=O)N[C@H](C(=O)NC)CCCN(C(C)=O)C1", "values": [{"measurement": "ring closure, yield of all isomers", "setting": "from C=C(CBr)CO[C@H](COCc1ccccc1)[C@@H](C/C=C/c1ccccc1)C(=O)N[C@@H](CCCN)C(=O)NC, amine bond, diisopropylethylamine, acetonitrile, 2.1 mM, 3 steps", "result": 76, "unit": "%"}]}, {"molecule": "COC(=O)[C@@H]1CCCc2ccc(cc2)OCCC[C@H](C(=O)OC(C)(C)C)[C@@H](CC(C)C)C(=O)N1", "values": [{"measurement": "ring closure, yield of all isomers", "setting": "from COC(=O)[C@H](CCCc1ccc(O)cc1)NC(=O)[C@H](CC(C)C)[C@H](CCCBr)C(=O)OC(C)(C)C, ether bond, Cs2CO3, DMF, 8.7 mM, 0.0 °C, 2.0 h", "result": 32, "unit": "%"}]}, {"molecule": "CNC(=O)[C@@H]1CCCCN(S(=O)(=O)C(F)(F)F)CCC[C@H](C(=O)OC(C)(C)C)[C@@H](CC(C)C)C(=O)N1", "values": [{"measurement": "ring closure, yield of all isomers", "setting": "from CNC(=O)[C@H](CCCCNS(=O)(=O)C(F)(F)F)NC(=O)[C@H](CC(C)C)[C@H](CCCO)C(=O)OC(C)(C)C, amine bond, DIAD/PPh3, THF, 15.6 mM, 16.0 h, 2 steps", "result": 52, "unit": "%"}]}, {"molecule": "CNC(=O)[C@@H]1CCCCN(S(=O)(=O)c2c(C)cc(C)cc2C)CCC[C@H](C(=O)OC(C)(C)C)[C@@H](CC(C)C)C(=O)N1", "values": [{"measurement": "ring closure, yield of all isomers", "setting": "from CNC(=O)[C@H](CCCCNS(=O)(=O)c1c(C)cc(C)cc1C)NC(=O)[C@H](CC(C)C)[C@H](CCCO)C(=O)OC(C)(C)C, amine bond, PPh3/DIAD, THF, 21.5 mM, 16.0 h, 2 steps", "result": 30, "unit": "%"}]}, {"molecule": "CNC(=O)[C@@H]1CCCCN(S(=O)(=O)c2cn(C)cn2)CCC[C@H](C(=O)OC(C)(C)C)[C@@H](CC(C)C)C(=O)N1", "values": [{"measurement": "ring closure, yield of all isomers", "setting": "from CNC(=O)[C@H](CCCCNS(=O)(=O)c1cn(C)cn1)NC(=O)[C@H](CC(C)C)[C@H](CCCO)C(=O)OC(C)(C)C, amine bond, PPh3/DIAD, THF, 17.1 mM, 16.0 h", "result": 52, "unit": "%"}]}, {"molecule": "CNC(=O)[C@@H]1CCCCN(S(=O)(=O)c2ccc([N+](=O)[O-])cc2)CCC[C@H](C(=O)OC(C)(C)C)[C@@H](CC(C)C)C(=O)N1", "values": [{"measurement": "ring closure, yield of all isomers", "setting": "from CNC(=O)[C@H](CCCCNS(=O)(=O)c1ccc([N+](=O)[O-])cc1)NC(=O)[C@H](CC(C)C)[C@H](CCCO)C(=O)OC(C)(C)C, amine bond, PPh3/DIAD, THF, 24.7 mM", "result": 26, "unit": "%"}]}]}
